Experiments:
Assay in all cases: Bliss excess, mean over the matrix (fraction); higher = more synergy
[1] = system: HSC-3 (Oral Cavity Carcinoma)
Outline: (§1)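 Bliss excess equals the observed combination effect minus the expected value EA + EB − EA·EB, where EA and EB are the effects of each agent alone. Combination Emax is the second-highest inhibition within the matrix. Inhibition was scaled from CellTiter-Glo 2.0 luminescence, with 0 set by vehicle wells and 1 by blank wells, after 72 hours of two-drug dosing of cells plated in 1536-well plates.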

[2] = system: AsPC-1 (Pancreatic Carcinoma)
Outline: as §1

[3] = system: OCI-AML5 (Acute Myeloid Leukemia)
Outline: as §1

[4] = system: RPMI-8866 (Chronic Myelogenous Leukemia)
Outline: as §1

[5] = system: NCI-H1623 (Lung Adenocarcinoma)
Outline: as §1

[6] = system: EB-3 (Burkitt's Lymphoma)
Outline: as §1

HuO-3N1 (Osteosarcoma) = system: HuO-3N1 (Osteosarcoma)
Outline: as §1

[7] = system: PANC-02-03 (Pancreatic Carcinoma)
Outline: as §1

[8] = system: NCI-H1155 (Non-Small Cell Lung Carcinoma)
Outline: as §1

[9] = system: NKM-1 (Acute Myeloid Leukemia)
Outline: as §1

[10] = system: LAMA-84 (Chronic Myelogenous Leukemia)
Outline: as §1

ES-2 (Ovarian Carcinoma) = system: ES-2 (Ovarian Carcinoma)
Outline: as §1

[11] = system: OV-90 (Ovarian Carcinoma)
Outline: as §1

786-0 (Kidney Carcinoma) = system: 786-0 (Kidney Carcinoma)
Outline: as §1

[12] = system: FLO-1 (Esophageal Adenocarcinoma)
Outline: as §1

[13] = system: JHH-1 (Hepatocellular Carcinoma)
Outline: as §1

[14] = system: SNU-175 (Colorectal Carcinoma)
Outline: as §1

[15] = system: Calu-6 (Non-Small Cell Lung Carcinoma)
Outline: as §1

[16] = system: SW684 (Other Solid Carcinomas)
Outline: as §1

[17] = system: CML-T1 (Chronic Myelogenous Leukemia)
Outline: as §1

Row | Structure (SMILES) | Bliss excess [1] | Bliss excess [2] | Bliss excess [3] | Bliss excess [4] | Bliss excess [5] | Bliss excess [6] | Bliss excess (HuO-3N1 (Osteosarcoma)) | Bliss excess [7] | Bliss excess [8] | Bliss excess [9] | Bliss excess [10] | Bliss excess (ES-2 (Ovarian Carcinoma)) | Bliss excess [11] | Bliss excess (786-0 (Kidney Carcinoma)) | Bliss excess [12] | Bliss excess [13] | Bliss excess [14] | Bliss excess [15] | Bliss excess [16] | Bliss excess [17]
1 | CN(C)CCCOc1ccc(-c2ccc3ncc4c(c3c2)n(C2CCOCC2)c(=O)n4C)cn1 [AZD0156] + C[C@@H]1COCCN1C2=NC(=NC(=C2)C3(CC3)[S@](=N)(=O)C)C4=C5C=CNC5=NC=C4 [AZD6738] (first compound max 1 µM, 7x7, partner max 10 µM) | -0.0032 | -0.0184 | -0.0479 | -0.0014 | -0.0236 | -0.0035 | -0.0046 | -0.0412 | -0.0289 | -0.11 | 0.0048 | -0.0217 | -0.0323 | -0.0177 | 0.0005 | 0.0102 | 0.0006 | -0.0139 | -0.0526 | -0.0095
2 | Cc1c2c(nn1C)CSCc1cc(n(C)n1)CSc1cc(c3ccccc3c1)OCCCc1c(C(=O)O)n(C)c3c-2c(Cl)ccc13 [AZD5991] + Cc1cc2ncnn2cc1Nc1ncc2c(n1)n(C1CCOCC1)c(=O)n2C [AZD7648] (first compound max 1 µM, 7x7, partner max 10 µM) | -0.0448 | -0.0517 | 0.0059 | -0.0497 | 0.0374 | -0.0379 | -0.0229 | -0.0151 | -0.017 | -0.0265 | -0.01 | -0.0545 | -0.039 | -0.0341 | -0.0408 | -0.0585 | -0.0125 | -0.0338 | -0.0222 | -0.0205
3 | Cc1cc2ncnn2cc1Nc1ncc2c(n1)n(C1CCOCC1)c(=O)n2C [AZD7648] + CN(C)CCCOc1ccc(-c2ccc3ncc4c(c3c2)n(C2CCOCC2)c(=O)n4C)cn1 [AZD0156] (first compound max 10 µM, 7x7, partner max 1 µM) | 0.0174 | -0.0291 | 0.0276 | -0.0363 | -0.0209 | -0.0867 | -0.0416 | 0.0002 | 0.0397 | -0.0039 | -0.0024 | 0.029 | -0.0374 | 0.0224 | -0.0665 | 0.0063 | -0.0021 | 0.0024 | -0.056 | -0.0092
4 | CC1(C)CCC(CN2CCN(c3ccc(C(=O)NS(=O)(=O)c4ccc(NCC5CCOCC5)c([N+](=O)[O-])c4)c(Oc4cnc5[nH]ccc5c4)c3)CC2)=C(c2ccc(Cl)cc2)C1 [Venetoclax] + C=CCn1c(=O)c2cnc(Nc3ccc(N4CCN(C)CC4)cc3)nc2n1-c1cccc(C(C)(C)O)n1 [AZD1775] (first compound max 1 µM, partner max 1 µM) | -0.0216 | -0.0879 | -0.0397 | -0.0547 | -0.0218 | -0.0193 | -0.0172 | -0.0699 | -0.0417 | -0.0087 | 0.0884 | -0.0297 | -0.0168 | -0.0686 | 0.0161 | 0.0213 | -0.0735 | -0.0317 | 0.032 | 0.0106
5 | Cc1cc2ncnn2cc1Nc1ncc2c(n1)n(C1CCOCC1)c(=O)n2C [AZD7648] + CCN(CCO)CCCOc1ccc2c(Nc3cc(CC(=O)Nc4cccc(F)c4)[nH]n3)ncnc2c1 [AZD2811] (first compound max 10 µM, 7x7, partner max 1 µM) | 0.0012 | -0.0312 | -0.0377 | -0.0233 | -0.0311 | -0.0338 | -0.0184 | 0.0163 | 0.0796 | 0.0545 | 0.115 | 0.0083 | -0.017 | 0.0259 | 0.0161 | -0.0287 | 0.0136 | 0.0268 | -0.027 | 0.069
6 | CC(=O)c1c(C)c2cnc(Nc3ccc(N4CCNCC4)cn3)nc2n(C2CCCC2)c1=O [Palbociclib] + Cn1cnc2c(F)c(Nc3ccc(Br)cc3Cl)c(C(=O)NOCCO)cc21 [Selumetinib] (first compound max 10 µM, 7x7, partner max 10 µM) | -0.0418 | -0.0664 | 0.0868 | 0.0259 | 0.0398 | -0.0727 | -0.0601 | 0.0334 | -0.0201 | -0.0194 | -0.0263 | -0.0041 | 0.0151 | 0.0079 | 0.0209 | -0.0693 | 0.0599 | -0.102 | -0.018 | -0.013
7 | Cc1c2c(nn1C)CSCc1cc(n(C)n1)CSc1cc(c3ccccc3c1)OCCCc1c(C(=O)O)n(C)c3c-2c(Cl)ccc13 [AZD5991] + C=CCn1c(=O)c2cnc(Nc3ccc(N4CCN(C)CC4)cc3)nc2n1-c1cccc(C(C)(C)O)n1 [AZD1775] (first compound max 1 µM, partner max 1 µM) | 0.0184 | 0.0293 | -0.0036 | -0.0441 | 0.0167 | -0.0242 | 0.006 | -0.0195 | 0.0707 | -0.0519 | 0.0422 | -0.0399 | -0.0929 | -0.0387 | -0.0047 | 0.03 | -0.0185 | -0.0963 | -0.0161 | -0.0151
8 | CCN(CCO)CCCOc1ccc2c(Nc3cc(CC(=O)Nc4cccc(F)c4)[nH]n3)ncnc2c1 [AZD2811] + C=CCn1c(=O)c2cnc(Nc3ccc(N4CCN(C)CC4)cc3)nc2n1-c1cccc(C(C)(C)O)n1 [AZD1775] (first compound max 1 µM, partner max 1 µM) | 0.0504 | -0.0738 | -0.0295 | 0.0714 | 0.009 | -0.071 | -0.0504 | -0.0628 | 0.0451 | 0.0269 | 0.0026 | -0.0111 | 0.021 | -0.0246 | -0.0162 | -0.0609 | -0.0108 | -0.0028 | -0.0454 | 0.0392
9 | CN(CCO)CC[C@H](CSc1ccccc1)Nc1ccc(S(=O)(=O)NC(=O)c2ccc(N3CCC([C@@H](O)c4ccccc4-c4ccc(Cl)cc4)CC3)cc2)cc1S(=O)(=O)C(F)(F)F [AZD4320] + C[C@@H](Nc1cc(F)cc(F)c1)c1cc(C(=O)N(C)C)cc2c(=O)cc(N3CCOCC3)oc12 [AZD8186] (first compound max 1 µM, 7x7, partner max 3 µM) | 0.0482 | -0.0141 | 0.0823 | 0.0244 | 0.0105 | 0.0368 | 0.0557 | -0.0465 | 0.075 | 0.0224 | 0.0355 | 0.0151 | -0.0073 | -0.0081 | -0.0261 | -0.0258 | -0.0233 | 0.0264 | -0.0356 | 0.0035
10 | CC1(C)CCC(CN2CCN(c3ccc(C(=O)NS(=O)(=O)c4ccc(NCC5CCOCC5)c([N+](=O)[O-])c4)c(Oc4cnc5[nH]ccc5c4)c3)CC2)=C(c2ccc(Cl)cc2)C1 [Venetoclax] + CCN(CCO)CCCOc1ccc2c(Nc3cc(CC(=O)Nc4cccc(F)c4)[nH]n3)ncnc2c1 [AZD2811] (first compound max 1 µM, 7x7, partner max 1 µM) | -0.0475 | -0.0755 | -0.0195 | 0.133 | -0.0165 | 0.0036 | 0.0175 | -0.0283 | 0.132 | 0.0697 | -0.0036 | -0.0388 | -0.0546 | -0.0469 | -0.019 | -0.0166 | -0.0552 | 0.0331 | -0.0043 | 0.104
11 | C[C@@H](c1ccc2nccn2c1)n1nnc2ncc(-c3cnn(C)c3)nc21 [Savolitinib] + Cc1c2c(nn1C)CSCc1cc(n(C)n1)CSc1cc(c3ccccc3c1)OCCCc1c(C(=O)O)n(C)c3c-2c(Cl)ccc13 [AZD5991] (first compound max 1 µM, 7x7, partner max 1 µM) | -0.018 | -0.118 | -0.0178 | -0.0285 | -0.0195 | -0.076 | -0.0631 | -0.0374 | -0.0188 | -0.0069 | 0.0136 | -0.0299 | -0.0519 | -0.0331 | -0.032 | -0.0462 | -0.0713 | -0.0124 | -0.0608 | 0.0118
12 | COc1nnc2ccc(N3CCC(c4ccc(OCCN5CCN(C)C(=O)[C@H]5C)cc4)CC3)nn12 [AZD5153] + CC1(C)CCC(CN2CCN(c3ccc(C(=O)NS(=O)(=O)c4ccc(NCC5CCOCC5)c([N+](=O)[O-])c4)c(Oc4cnc5[nH]ccc5c4)c3)CC2)=C(c2ccc(Cl)cc2)C1 [Venetoclax] (first compound max 1 µM, 7x7, partner max 1 µM) | -0.0846 | -0.0807 | 0.0114 | -0.0979 | -0.0448 | 0.0042 | -0.0576 | -0.0263 | 0.0223 | -0.0195 | -0.0361 | -0.0677 | -0.085 | -0.0762 | -0.005 | -0.0256 | -0.0392 | -0.0949 | -0.0705 | 0.0479
13 | COc1cccc(OCCCN)c1-c1cc(Nc2cnc(C#N)cn2)n[nH]1 [Prexasertib] + C=CCn1c(=O)c2cnc(Nc3ccc(N4CCN(C)CC4)cc3)nc2n1-c1cccc(C(C)(C)O)n1 [AZD1775] (first compound max 1 µM, partner max 1 µM) | 0.121 | -0.0189 | 0.063 | 0.0591 | 0.0519 | 0.0312 | 0.122 | 0.0504 | 0.0998 | 0.056 | 0.0731 | 0.0006 | -0.0477 | 0.0707 | 0.0488 | 0.0105 | 0.0595 | -0.0201 | 0.0798 | 0.189
14 | COc1cccc(OCCCN)c1-c1cc(Nc2cnc(C#N)cn2)n[nH]1 [Prexasertib] + CN(C)CCCOc1ccc(-c2ccc3ncc4c(c3c2)n(C2CCOCC2)c(=O)n4C)cn1 [AZD0156] (first compound max 1 µM, 7x7, partner max 1 µM) | -0.0322 | 0.0303 | 0.0781 | -0.009 | -0.0206 | 0.0498 | 0.0092 | -0.0009 | -0.0753 | -0.0165 | -0.0219 | 0.0072 | -0.035 | -0.0576 | -0.056 | 0.0785 | 0.0462 | -0.0507 | -0.0432 | -0.0328

Source: the supplement of paper PMC11061612
